The source made the active and inactive calls. How the calls were made is not given here.
Each molecule was assayed against Mu-type opioid receptor (Homo sapiens) + Delta-type opioid receptor (Homo sapiens) (UniProt P35372+P41143) (assay: OPRM1-OPRD1 heterodimer agonist potency – cell-based, luminescence, counter-screen for MC4R biased agonist project, dose response (AID 602264)). Conditions: cell-based OPRM1-OPRD1 heterodimerization.
Mu-type opioid receptor (Homo sapiens) + Delta-type opioid receptor (Homo sapiens), sequence (P35372 whole entry, looked up): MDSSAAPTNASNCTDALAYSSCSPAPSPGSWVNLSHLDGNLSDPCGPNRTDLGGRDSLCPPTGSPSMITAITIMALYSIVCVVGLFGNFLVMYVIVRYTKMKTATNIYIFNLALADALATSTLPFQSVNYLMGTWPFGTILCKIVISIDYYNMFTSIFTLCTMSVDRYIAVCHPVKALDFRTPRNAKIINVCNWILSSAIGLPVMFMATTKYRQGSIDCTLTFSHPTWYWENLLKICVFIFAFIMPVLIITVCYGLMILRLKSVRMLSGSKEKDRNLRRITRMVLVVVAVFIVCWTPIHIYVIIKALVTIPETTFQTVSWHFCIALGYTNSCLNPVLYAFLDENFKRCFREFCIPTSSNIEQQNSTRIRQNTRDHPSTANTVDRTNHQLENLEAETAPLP
Mu-type opioid receptor (Homo sapiens) + Delta-type opioid receptor (Homo sapiens), sequence (P41143 whole entry, looked up): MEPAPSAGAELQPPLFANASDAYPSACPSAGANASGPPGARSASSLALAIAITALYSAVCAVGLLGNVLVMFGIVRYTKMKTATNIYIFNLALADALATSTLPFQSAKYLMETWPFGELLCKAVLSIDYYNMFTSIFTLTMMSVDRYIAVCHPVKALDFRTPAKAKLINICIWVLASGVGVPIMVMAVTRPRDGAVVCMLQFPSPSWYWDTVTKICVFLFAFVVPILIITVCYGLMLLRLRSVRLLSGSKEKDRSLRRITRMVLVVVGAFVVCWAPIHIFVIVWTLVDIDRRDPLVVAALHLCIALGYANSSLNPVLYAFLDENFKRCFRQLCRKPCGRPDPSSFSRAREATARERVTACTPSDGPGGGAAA
With COc1ccc(-c2sc3ccc(N4CCOCC4)cc3c2C#CC2(O)CCCCC2)cc1 the EC50 was > 64.6 µM (inactive). CCSc1nnc(NC(=O)c2csc3c2CCCC3)s1 was tested, and the EC50 was > 92.5 µM (inactive). In the case of CCN1CCN(CCNC(=O)c2ccc(/C=C3\Sc4ccccc4N(Cc4ccccc4F)C3=O)cc2)CC1, the EC50 is reported as > 92.5 µM (inactive). CC(=O)Nc1cc(-c2cccc(NS(C)(=O)=O)c2)cn2c(-c3ccccc3)cnc12 was tested, and the EC50 was > 92.5 µM (inactive). In the case of Oc1ccc(N2CCN(c3ncnc4sc(-c5ccccc5)cc34)CC2)cc1, the EC50 is reported as > 92.4 µM (inactive). With CC(=O)c1cccc(-c2cnc3c(NC=O)cc(-c4ccccc4F)cn23)c1 the EC50 was > 64.6 µM (inactive). CCOc1cc(NC(=O)c2cccs2)c(OCC)cc1NC(=O)c1ccco1 was tested, and the EC50 was > 92.3 µM (inactive). CC(=O)Nc1cc(-c2ccccc2)cn2c(-c3cccc(C(C)=O)c3)cnc12 was tested, and the EC50 was > 64.6 µM (inactive). For CCOc1ccc(Cn2c3ccc(OC)cc3c3nc4ccccc4nc32)cc1, the EC50 was > 64.6 µM (inactive). In the case of COc1ccc(-c2cc(NC(C)=O)c3ncc(-c4ccccc4)n3c2)c(OC)c1, the EC50 is reported as > 92.4 µM (inactive). CC(=O)Nc1cc(-c2ccc(S(C)(=O)=O)cc2)cn2c(-c3ccc(F)c(Cl)c3)cnc12 was tested, and the EC50 was > 64.6 µM (inactive). In the case of Cc1cc(C)nc(Nc2nc(C(N)Cc3ccc(Cl)cc3)cs2)n1 (stereo not given), the EC50 is reported as > 92.5 µM (inactive). With NC(c1ccccc1)c1csc(NC(=O)Nc2ccccc2Oc2ccccc2)n1 (stereo not given) the EC50 was > 92.5 µM (inactive). In the case of CCCCCCCCCCCCCCCC[n+]1cccc(C(=O)N(CC)CC)c1, the EC50 is reported as > 64.6 µM (inactive). For CN(C)CCOc1ccc(-c2c(-c3ccccc3)sc3ccccc23)cc1, the EC50 was > 92.5 µM (inactive). In the case of Nc1ccc(C2(c3ccc(N)cc3)c3ccccc3-c3ccccc32)cc1, the EC50 is reported as > 92.5 µM (inactive). With NC(N)=Nc1nc(-c2ccccc2)c2cc(Cl)ccc2n1 the EC50 was > 10.3 µM (inactive). For COc1cc(-c2cc(NC=O)c3ncc(-c4cccc(C(F)(F)F)c4)n3c2)cc(OC)c1OC, the EC50 was > 64.6 µM (inactive). In the case of CN(C)CCNC(=O)c1cccc(-c2cc(NC=O)c3ncc(-c4cccc(C(F)(F)F)c4)n3c2)c1, the EC50 is reported as > 92.5 µM (inactive). For CCCCCCCCCCOC(=O)Cn1c(COc2cccc(C)c2)[n+](C)c2ccccc21, the EC50 was > 64.6 µM (inactive). In the case of COc1cccc(/C=C2/SC(=S)N(CCCC(=O)Nc3ccc(O)cc3)C2=O)c1, the EC50 is reported as > 92.5 µM (inactive). For CC(=O)Nc1ccc(-c2csc(NC(=O)Nc3ccccc3)n2)cc1, the EC50 was > 64.6 µM (inactive). With COc1ccc(-c2cc(NC(C)=O)c3ncc(-c4ccc(F)cc4)n3c2)cc1OC the EC50 was > 64.6 µM (inactive). With Cc1ccc(NC(=S)NC(=O)c2ccc(-c3ccc(Cl)cc3)o2)c(O)c1 the EC50 was > 64.6 µM (inactive). COc1ccc(-c2oc3ccc(-c4ccc5c(c4)OCO5)cc3c2C#CC2(O)CCCCC2)cc1 was tested, and the EC50 was > 64.6 µM (inactive). For Cc1ccc2sc(N(CCCN(C)C)C(=O)CN3C(=O)c4ccccc4C3=O)nc2c1C, the EC50 was > 64.6 µM (inactive). In the case of CN(C)CCOc1ccc(-c2c(-c3ccsc3)sc3ccccc23)cc1, the EC50 is reported as > 92.5 µM (inactive). With Cc1cccc(NC(=S)NC(=O)C(c2ccccc2)c2ccccc2)n1 the EC50 was > 92.5 µM (inactive). For COc1cccc2sc(N(CCCN(C)C)C(=O)C(c3ccccc3)c3ccccc3)nc12, the EC50 was > 64.6 µM (inactive). With Cc1nnnn1/C(=C\c1ccccc1)C(=O)OCC(=O)Nc1ccc(Cl)cc1F the EC50 was > 92.5 µM (inactive). For Cc1c(CN2CCC(CO)(CCOc3ccccc3)CC2)[nH]c2c(Cl)cccc12, the EC50 was > 92.5 µM (inactive). With CC12CCC3C(CC=C4CC(O)CCC43C)C1C/C(=C\c1ccccc1F)C2=O (stereo not given) the EC50 was “inactive”. With Cc1ccc(O)c(C(=O)/C=C/c2ccc3c(c2)OCCCO3)c1 the EC50 was > 64.6 µM (inactive). In the case of CC(C)c1ccc(NS(=O)(=O)c2ccc(-n3cccn3)cc2)cc1, the EC50 is reported as > 92.5 µM (inactive). In the case of C/C(=C\c1ccco1)C1C(C#N)=C(N)Oc2n[nH]c(-c3ccc(C)cc3)c21 (stereo not given), the EC50 is reported as > 64.6 µM (inactive). Cc1cccc(C)c1-n1cccc1/C=C1\SC(=S)N(c2cccc(C(=O)O)c2)C1=O was tested, and the EC50 was > 92.5 µM (inactive). With COc1ccc(C(NC(=O)C2CCN(CCOc3ccc(Cl)cc3Cl)CC2)c2ccccc2C)cn1 (stereo not given) the EC50 was > 64.6 µM (inactive). For Cc1ccc(-c2csc3nc4c5ccccc5c(NCCCN(C)C)nn4c(=O)c23)cc1, the EC50 was > 64.6 µM (inactive). In the case of COc1ccc(/C=N/NC(=O)c2ccc(COc3ccccc3Cl)o2)c(OC)c1C, the EC50 is reported as > 64.6 µM (inactive). With Clc1ccc(/C=N/NC2=Nc3cccc4cccc2c34)cc1 the EC50 was > 92.4 µM (inactive). For COc1cc(-c2cc(NC=O)c3ncc(-c4ccc(C(C)=O)cc4)n3c2)cc(OC)c1OC, the EC50 was > 92.5 µM (inactive). CC(=O)Nc1cc(-c2cccc(F)c2)cn2c(-c3ccc(F)c(Cl)c3)cnc12 was tested, and the EC50 was > 64.6 µM (inactive). In the case of CC(=O)Nc1cc(-c2cccnc2)cn2c(-c3ccc(F)cc3)cnc12, the EC50 is reported as > 64.6 µM (inactive). With COc1cc(NS(=O)(=O)c2ccc(NC(=S)NC(=O)c3sc4ccccc4c3Cl)cc2)ncn1 the EC50 was > 92.4 µM (inactive). In the case of COc1ccc(NC(=O)COC(=O)c2c(NC(C)=O)sc(C)c2C)cc1, the EC50 is reported as > 92.5 µM (inactive).
